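Five concentrations, 48 hours, 96-well plates. GI50 = concentration required for 50% inhibition of growth. TGI marks complete inhibition of growth.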
What was measured:
Test in all cases: NCI-60 cell line screen, 48 h
[1] = test system: OVCAR-3 ovarian
[2] = test system: DMS 114 small cell lung
[3] = test system: KM20L2 colon
[4] = test system: XF 498 CNS
[5] = test system: DMS 273 small cell lung
[6] = test system: LXFL 529 NSCLC
[7] = test system: M19-MEL melanoma
[8] = test system: HOP-18 NSCLC
[9] = test system: DLD-1 colon
[10] = test system: HOP-62 NSCLC
[11] = test system: LOX IMVI melanoma
[12] = test system: SNB-78 CNS
[13] = test system: RXF-631 renal

| SMILES | TGI [1] [µM] | TGI [2] [µM] | TGI [3] [µM] | TGI [4] [µM] | TGI [5] [µM] | TGI [6] [µM] | TGI [7] [µM] | TGI [8] [µM] | TGI [9] [µM] | TGI [10] [µM] | TGI [11] [µM] | TGI [12] [µM] | GI50 [1] [µM] | GI50 [10] [µM] | TGI [13] [µM] |
| --- | --- | --- | --- | --- | --- | --- | --- | --- | --- | --- | --- | --- | --- | --- | --- |
| COc1ccc2[nH]c3c(C)cc([N+](=O)[O-])c(C)c3c2c1 | > 100 | 58.3 | > 100 | > 100 | 45.4 | > 100 | 45.1 | > 100 | 72.7 |  |  |  |  |  |  |
| O=c1[nH]c(=O)n(C2CC(O)C(CO)O2)cc1C#Cc1ccc(F)cc1 (centres undefined) | > 100 | > 100 | > 100 | > 100 | > 100 | > 100 | > 100 | > 100 | > 100 | > 100 | > 100 | > 100 |  |  |  |
| CCOC(=O)/C(=C/c1ccc(N(CCC#N)CCC#N)cc1C)NC(=O)/C=C/c1ccccc1 | > 100 | > 100 | > 100 | > 100 | > 100 | > 100 | > 100 |  | > 100 | > 100 | > 100 | > 100 |  |  |  |
| CCn1c2c(c3ccccc31)C(c1ccccc1)CC1C(=O)N(c3ccccc3)C(=O)C21 (centres undefined) | > 100 | > 100 | > 100 | 37.2 | > 100 | > 100 | > 100 |  | > 100 | > 100 | > 100 | > 100 |  |  |  |
| O=C(OC/C=C1C=C(OC(=O)c2ccccc2)/C(=N/N(C(=O)c2ccccc2)c2ccccc2)O\1)c1ccccc1 | 21.5 | 28.3 |  | 33.7 | 24.1 | 4.4 | 18.8 |  | 10.6 | 37 | 14.1 | 67.1 | 8.35 | 18.8 |  |
| NCCCCCCNCc1cccc2ccccc12 | > 100 | > 100 | > 100 | > 100 |  | > 100 | > 100 | > 100 | > 100 | > 100 | > 100 | > 100 |  |  |  |
| OC12c3ccccc3C3CCC4(OCCO4)C3C1c1ccccc12 (centres undefined) | > 100 | > 100 | > 100 |  | > 100 | > 100 | > 100 | > 100 | > 100 | > 100 | > 100 | > 100 |  |  |  |
| COc1ccc(C(=O)N/N=C/c2c(C)n(C)n(-c3ccccc3)c2=O)cc1 | > 100 | > 100 | > 100 | > 100 | > 100 | > 100 | > 100 | > 100 | > 100 | > 100 | > 100 | > 100 |  |  |  |
| CC(C)(C)OC(=O)c1cccnc1/C=N/O | > 100 | > 100 | > 100 | > 100 | > 100 | > 100 | > 100 | > 100 | > 100 | > 100 | > 100 | > 100 |  |  | > 100 |
| CC1NC(=O)C2=C1C(N)=NC(=O)C2 (centres undefined) | > 100 | > 100 | > 100 | > 100 | > 100 | > 100 | > 100 | > 100 | > 100 |  | > 100 | > 100 |  |  |  |
| C#CC1(O)CCC2[C@@H]3CCc4cc(Oc5nc(F)nc(-c6c7ccccc7cn6C)n5)ccc4C3CC[C@@]21C (some centres undefined) | > 100 | > 53.2 | > 100 | > 100 | > 100 | > 100 | > 100 | > 100 | > 73.5 | > 100 | > 100 | > 100 |  |  |  |
| COc1cc2c(cc1C1=NC(C)(C)CO1)OCO2 | > 100 | > 100 | > 100 | > 100 |  | > 100 | > 100 | > 100 | > 100 | > 100 |  |  |  |  | > 100 |
| CCCN(CCC)c1c([N+](=O)[O-])cc(C(=O)N(CCO)CCO)cc1[N+](=O)[O-] | > 100 |  |  | > 100 | > 100 | > 100 | > 100 | > 100 | > 100 |  |  | > 100 |  |  |  |
| CC(=O)N(O)Cc1ccccc1 | > 100 | > 100 | > 100 | > 100 |  | > 100 | > 100 |  | > 100 | > 100 | > 100 | > 100 |  |  | > 100 |
| CCOC(=O)C1([Se]c2ccccc2)CCCC1=O (centres undefined) | 98 | 15.3 | > 100 | 36.9 | 28.5 | 34.2 | 51.1 | 59.7 | 32.9 | > 100 | 26.7 | 54.9 |  |  | > 100 |
| O=c1[nH]c(=O)n(C2OC(CO)C(O)C2O)cc1OCC(F)(F)F (centres undefined) | > 100 | > 100 | > 100 | > 100 | > 100 | > 100 | > 100 | > 100 | > 100 | > 100 | > 100 | > 100 |  |  |  |
